Key:
HEp3 cells = assay: Intravasation assay: chick embryo CAM with Alu-PCR of lower CAM; format: in vivo, human
MMP-9 = assay: Gelatin gel zymography of HEp3 conditioned medium, MMP-9; format: biochemical, human; details: 80 nM
Procedure: (§1) FIG. 10. […] Serum-free conditioned medium of HEp3 cells was collected and electrophoresed on PAGE by loading 10 μl into each of five wells. The gel was sliced to include one sample per slice and each slice was incubated with marimastat at the indicated concentrations (0-1.6 μM) and the gels were incubated only for 22 hr.
(§2) Ten μl aliquots of conditioned media were electrophoresed at 4° C. on 8% PAGE containing 0.1% gelatin, the gel washed in 2.5% Triton X-100 for 30 min, rinsed in water, and incubated for 40 hrs at 37° C. in buffer containing 50 mM Tris pH 7.7, 5 mM CaCl2, and 0.02% NaN3. To test for inhibition of MMPs by BB2516, HEp3 cell conditioned medium was electrophoresed in quadruplicate. The gel was cut into 4 fragments each containing one sample (lane) and incubated separately as above except that marimastat was added in increasing concentration to the incubation buffer. All gels were stained with Coomassie blue, de-stained and dried between dialysis sheets.

MMP-1 = assay: Gelatin gel zymography of HEp3 conditioned medium, MMP-1; format: biochemical, human; details: 80 nM
Procedure: as §1, §2

MMP-2 = assay: Gelatin gel zymography of HEp3 conditioned medium, MMP-2; format: biochemical, human; details: 1.6 μM, highest concentration tested
Procedure: as §1, §2

[1] = tested on: MMP-1, MMP-2, MMP-3, MMP-7 and MMP-9; details: one range printed for MMP-1, MMP-2, MMP-3, MMP-7 and MMP-9 together; cited from earlier work

## CNC(=O)[C@@H](NC(=O)[C@H](CC(C)C)[C@H](O)C(=O)NO)C(C)(C)C [marimastat]
HEp3 cells; 200 μM inhibitor, compared with 100 μM
  inhibition of intravasation: less effective
HEp3 cells; final concentration of 50 nM, separate experiment
  inhibition of intravasation: […]
MMP-9
  inhibition of MMP-9 activity (zymogram): block most
MMP-1
  inhibition of MMP-1 activity (zymogram): […]
MMP-2
  inhibition of MMP-2 activity (zymogram): residual lysis zone
MMP-2; listed as Marimastat
  inhibition of MMP-2 activity (zymogram): not completely inhibited
[1]
  IC50: […]

Source: patent US6228345A, “In vivo assay for intravasation” (Mount Sinai School of Medicine of New York University, priority 1999, dated 2001)
